# Biological target: T1, Inhibitor of nuclear factor kappa-B kinase subunit beta (Homo sapiens) (UniProt O14920)
# T1 sequence (whole entry): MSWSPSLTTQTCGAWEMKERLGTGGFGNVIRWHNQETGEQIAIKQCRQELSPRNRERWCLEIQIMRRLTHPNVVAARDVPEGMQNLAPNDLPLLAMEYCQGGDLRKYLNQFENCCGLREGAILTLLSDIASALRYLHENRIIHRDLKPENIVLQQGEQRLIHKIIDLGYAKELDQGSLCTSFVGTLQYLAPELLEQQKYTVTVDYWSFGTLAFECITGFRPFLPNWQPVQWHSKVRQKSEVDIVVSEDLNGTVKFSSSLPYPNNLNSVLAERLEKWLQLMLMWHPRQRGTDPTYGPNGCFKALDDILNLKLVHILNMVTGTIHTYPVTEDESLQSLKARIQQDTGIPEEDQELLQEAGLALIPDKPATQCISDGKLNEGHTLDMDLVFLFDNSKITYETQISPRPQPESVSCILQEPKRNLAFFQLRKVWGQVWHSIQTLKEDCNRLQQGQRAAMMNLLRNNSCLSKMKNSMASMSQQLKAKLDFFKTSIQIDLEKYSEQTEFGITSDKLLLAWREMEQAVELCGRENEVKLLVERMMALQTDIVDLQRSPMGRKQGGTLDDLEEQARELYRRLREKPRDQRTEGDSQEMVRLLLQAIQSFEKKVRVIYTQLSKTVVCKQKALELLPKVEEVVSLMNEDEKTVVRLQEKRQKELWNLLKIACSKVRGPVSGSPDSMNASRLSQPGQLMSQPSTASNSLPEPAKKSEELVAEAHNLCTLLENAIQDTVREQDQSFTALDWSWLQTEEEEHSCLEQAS
# Assay: Inhibition of human IKKbeta using GST-IkappaBalpha as substrate at 10 uM
# Conditions: not given
row,SMILES,inhibition [%]
1,CCCCc1ccc(-n2cnc3c(=O)[nH]c(N)nc32)cc1,41.5
2,Cc1ccc(-c2cc3c(c(N)c2C#N)c(=O)oc2ccccc23)o1,23.4
3,Cc1c(-c2ccc3c(c2)COC3)sc(N)c1C#N,92.4
4,CC(C)NC[C@@H](O)COc1cccc2[nH]c3ccccc3c12,36.7
5,Nc1nc(=O)c2ncn(-c3cccc(-c4ccccc4)c3)c2[nH]1,47.1
6,N#Cc1c(C2CCNCC2)cc(-c2c(O)cccc2OCC2CC2)nc1N,100
7,OC[C@@H](O)[C@@H](O)[C@H](O)c1nn(-c2ccccc2)c2nc3ccc(Cl)cc3nc12,44.8
8,COC(=O)c1ccc(NC(=O)COc2ccc(S(=O)(=O)NC(C)(C)C)cc2)cc1,23.8
9,O=C(c1ccco1)c1coc2c1cc(O)c1ccccc12,29.6
10,CC[C@H](OC(=O)Nc1ccc(S(=O)(=O)N2CCCCC2)cc1)c1ccco1,44.3
11,CCOC(=O)c1c(N)oc(=O)c2c1-c1ccccc1C2=O,43.8
12,NC(=O)C[C@H](Nc1ncc2c(n1)-c1ccccc1OC2)C(=O)O,44.4
13,Cc1sc(N)c2c(=O)oc3c4ccccc4ccc3c12,64.1

# Biological target: T2, Inhibitor of nuclear factor kappa-B kinase subunit beta (Homo sapiens, UniProt O14920)
# T2 sequence (O14920 whole entry): T1 sequence (whole entry)
# Conditions: read-out: IC50
row,SMILES,IC50 [nM]
1,Cc1c(-c2ccc3c(c2)COC3)sc(N)c1C#N,2440
2,Cc1sc(N)c2c(=O)oc3c4ccccc4ccc3c12,9690

# Same assay, conditions: read-out: pIC50 (converted)
row,SMILES,IC50 [nM]
1,CNc1nc2cc(-c3nccs3)sc2c2c1ncn2C,229
2,CNc1nc2[nH]c(-c3ccc(F)cc3)cc2c2c1ncn2C,42.7
3,CNC(=O)c1cc(-c2ccc(F)cc2)cc(-c2ccc(N3CCCCC3)cc2)c1N,15800
4,Cc1cnc2c(NCCN)nc3cc(-c4ncc[nH]4)sc3n12,447
5,c1ccc(Oc2ccc(-c3ccnc(Nc4ccc5ncsc5c4)n3)cc2)cc1,6030
6,Cc1cnc2c(NCCN3CCNCC3)nc3cc(-c4ccccc4)sc3n12,39.8
7,NC(=O)c1sc(-c2ccccc2)cc1N,3240
8,COc1c(C(N)=O)cc(-c2ccccc2)cc1-c1ccncc1,15800
9,NC(=O)c1sc(-c2ccccc2)cc1NS(=O)(=O)c1ccc(F)cc1,1580
10,CN(c1ccc(-c2ccnc3[nH]ccc23)cc1)S(C)(=O)=O,316
11,NC(=O)Nc1ncc(-c2ccccc2)nc1C(N)=O,10000
12,CNc1nc2sc(-c3ccc(F)cc3)nc2c2c1ncn2C,26.3
13,CNc1nc2cc(-c3ccccc3)sc2n2c(C)cnc12,21.9
14,CC(=O)c1cc2cc(Nc3nccc(-c4ccc(S(=O)(=O)N5CCNCC5)cc4)n3)ccc2o1,25.7
15,NC(=O)Nc1sc(C#CC2CC2)cc1C(N)=O,263
16,O=C1C=CC(c2ccc(-c3ccnc(Nc4ccc5ncsc5c4)n3)cc2)C=C1,2510
17,CNc1nc2sc(-c3ccc(C(=O)NCc4cccs4)cc3)nc2c2c1ncn2C,15.1
18,CNC(=O)c1sc(-c2ccccc2)cc1NC(N)=O,100000
19,NC(=O)Nc1cc(-c2ccccc2)sc1C(N)=O,25.1
20,CNc1nc2sc(-c3ccc(N4CC=CCC4)cc3)nc2c2c1ncn2C,33.1
21,CNc1nc2[nH]c(-c3cccc(CNC(=O)CCOC)c3)cc2c2c1ncn2C,12

row,SMILES,IC50 [nM]
1,Cc1cnc2c(NCCN)nc3cc(-c4ccc[nH]4)sc3n12,2.51
2,CNc1nc2[nH]c(-c3cccc(OC)c3)cc2c2c1ncn2C,7.94
3,N#Cc1c(C2CCCNC2)cc(-c2c(O)cccc2OCC2CCCCC2)nc1N (configuration not stated),26.3
4,NC(=O)Nc1sc(C#Cc2cccc(NC(=O)c3ccccn3)c2)cc1C(N)=O,100000
5,CN(CCN)C(=O)c1ccc(Nc2nccc(-c3cc4ccccc4s3)n2)cc1,> 100000
6,CCNC(=O)c1ccc(-c2nc3c(nc(NC)c4ncn(C)c43)s2)cc1,15.1
7,O=S(=O)(c1ccc(-c2ccnc(Nc3cc(F)cc(F)c3)n2)cc1)N1CCNCC1,117
8,CNc1nc2[nH]c(-c3cccc(C#N)c3)cc2c2c1ncn2C,7.08
9,CNCCNS(=O)(=O)c1ccc(-c2ccnc3[nH]ccc23)cc1,32.4
10,CN(C)c1ccc(-c2cc(-c3ccccc3O)nc(N)c2C#N)cc1,20000
11,CNC(=O)c1ccc(-c2nc3c(nc(NC)c4ncn(C)c43)s2)cc1,15.1
12,CNc1nc2sc(-c3ccc(SC)cc3)nc2c2c1ncn2C,28.2
13,N#Cc1c(C2CCCNC2)cc(-c2c(O)cccc2OCc2ccccc2)nc1N (configuration not stated),9.12
14,NC(=O)c1sc(-c2ccccc2)cc1NC(=O)NCc1ccccc1,100000
15,CNc1nc2cc(-c3cccc(CCC(=O)O)c3)sc2n2c(C)cnc12,9.12
16,CNC(=O)c1cc(-c2ccc(F)cc2)cc(-c2ccc(S(C)(=O)=O)cc2)c1N,15800
17,N#Cc1c(-c2ccc([N+](=O)[O-])cc2)cc(-c2ccccc2O)nc1N,20000
18,CCS(=O)(=O)N1CCC(COc2cc3cnccc3cc2-c2ccccc2)CC1,20000
19,CNc1nc2[nH]c(-c3cccc(CNC(=O)CCC(N)=O)c3)cc2c2c1ncn2C,21.9
20,C#Cc1c(C2CCNCC2)cc(-c2c(O)cccc2OCC2CC2)nc1N,8.51
21,NC(=O)Nc1cc(-c2cccc(Cl)c2)sc1C(N)=O,39.8
